Where two headings read alike, the source gives them in different places.
Legend:
[1] = Solubility of curcumin in water and methanol; format: physicochemical
Text: In a first experiment curcumin powder, purchased from Sigma Aldrich, was used as the organic source material. The curcumin powder was formed into a pellet of target material by compression in a 0.5 inch in diameter mold using three tons of pressure. The curcumin pellet was then ablated according to the present invention using deionized water as the liquid. The flow rate of the liquid in the container was about 80 milliliters per second. The curcumin pellet was ablated using an ultrafast pulsed laser having a wavelength of 1045 nanometers, using a pulse duration of 500 femtoseconds, a pulse energy of 1 microJoules, a power of 1 W and a pulse repetition rate of 1 MHz. The laser focus spot size was about 30 micrometers in diameter and the fluence is calculated at about 0.14 Joules/cm^2. The frequency of the vibrating mirror was 50 Hz with a 4 millimeter trace for 0.4 meters per second. […] The hydrocolloidal contains some large particles as evidenced by the spread of the peak and the background absorbance of the curve. The y-axis is the absorption and the x-axis is the wavelength. […] In addition, 0.1 milliliters of the curcumin nanoparticle hydrocolloidal prepared according to the present invention was mixed with 1.0 milliliters of methanol. […]

[2] = background statement; cited from earlier work

- solubility in methanol ([1]; methanol, powder dissolved at 2.5×10^−5 M): dissolvable in methanol
- solubility in water ([1]; water): does not dissolve in water
SMILES: COc1cc(C=CC(=O)CC(=O)C=Cc2ccc(O)c(OC)c2)ccc1O [curcumin, 1,7-bis(4-hydroxy-3-methoxyphenyl)-1,6-heptadiene-3,5-dione]
- solubility in water [2]: not water soluble

— patent publication US8992815B2, “Production of organic compound nanoparticles with high repetition rate ultrafast pulsed laser ablation in liquids” (IMRA America, Inc., priority 2010, dated 2015)
